Data on 100 compounds can be found in the OPERA property sets (Mansouri et al. 2018).

Broadly, the melting point is the temperature of the solid-liquid transition. As a reminder, the boiling point is the temperature at which the vapour pressure of the liquid equals the pressure above it.

Conditions in one series: not given
For `C=CC(=O)OCCCCCCCC`, the log10 vapour pressure (mmHg) was -0.994 and the ready biodegradability result is given as “readily biodegradable”.
`CC(C)C1=CC2=C(CC1)[C@@]1(C)CCC[C@@](C)(C(=O)O)[C@@H]1CC2` came in with a melting point of 164 °C.
As to `CC(C)N(C(=O)SCC(Cl)=CCl)C(C)C`, the log10 Koc (L/kg) came out at 3.28, the log10 vapour pressure (mmHg) is -3.82 and the melting point was 25 °C.
The compound `CCCC(O)CO` (centres undefined) displayed a boiling point of 206 °C and a melting point of 104 °C.
Compound `CC(C)OC(=O)c1ccccc1O` gave a boiling point of 238 °C.
`C[C@]12CC[C@H]3[C@@H](CCC4=CC(=O)CC[C@@]43C)[C@@H]1CC[C@@H]2C(=O)CO` registered a melting point of 142 °C.
Regarding `Clc1cccc(Cl)n1`, the boiling point was 211 °C, the melting point is 88 °C and the ready biodegradability entry is “not readily biodegradable”.
Compound `Fc1ccncc1` showed a boiling point of 109 °C.
As for `CC(=O)N(O)CCCCCNC(=O)CCC(=O)N(O)CCCCCNC(=O)CCC(=O)N(O)CCCCCN`, the melting point was 140 °C.
In turn, `CC12CCC(CC1)C2(C)C` came in with a boiling point of 161 °C and a melting point of 158 °C.
Take `CNO`: the log10 vapour pressure (mmHg) amounted to 0.222 and the melting point stood at 87.5 °C.
In the case of `C[C@H]1C=CC2C(C1)C2(C)C` (stereo in doubt), the boiling point came out at 169 °C.
As to `Cc1cccc2cccc(C)c12`, the boiling point was 270 °C, the log10 vapour pressure (mmHg) was -2.32 and the melting point is 65 °C.
Turning to `CCCCCCCC(=O)N(CCO)CCO`, the ready biodegradability entry is reported as “readily biodegradable”.
`CS(=O)(=O)c1ccccc1` showed a melting point of 86 °C.
With `COc1cc(C(=O)O)cc(OC)c1O`, the melting point stood at 208 °C and the ready biodegradability entry is “readily biodegradable”.
For the compound `O=C(O)c1ccccc1C(c1ccc(O)cc1)c1ccc(O)cc1`, the melting point was found to be 230 °C.
For `C=CC(CC)CCC` (centres undefined), the boiling point amounted to 110 °C.
In turn, `CCc1nc(N)nc(N)c1-c1ccc(Cl)cc1` yielded a melting point of 234 °C.
Still for that read-out and setting: in the case of `Oc1ccc2c(c1)[C@@]13CCCC[C@H]1[C@@H](C2)NCC3` it was 271 °C.
Consider `C=CC(O)CCC` (centres undefined), for which the boiling point turned out to be 134 °C.
In turn, `C[C@]12CC[C@H](O)C[C@H]1CC[C@@H]1[C@@H]2C[C@@H](O)[C@]2(C)[C@@H](C3=CC(=O)OC3)CC[C@]12O` had a melting point of 222 °C.
Compound `CC(C)Oc1ccccc1` yielded a boiling point of 177 °C and a melting point of -33 °C.
As for `Cc1c(NC(=O)c2cccnc2)c(=O)n(-c2ccccc2)n1C`, the melting point was 253 °C.
`C[Si]1(C)N[Si](C)(C)N[Si](C)(C)N[Si](C)(C)N1`: the boiling point is 225 °C and the melting point is 97.5 °C.
Regarding `C=C(CC)CCC`, the boiling point amounted to 94 °C.
For `O=C(O)Cc1ccccc1CC(=O)O`, the melting point was found to be 151 °C.
In turn, `Clc1ccc(Oc2ccccc2)cc1Cl` came in with a log10 vapour pressure (mmHg) of -3.19.
`OCc1ccc(-c2ccccc2)cc1` came in with a log10 Koc (L/kg) of 2.54.
Take `CC(=O)C1C(=O)C=C(C)OC1=O` (centres undefined): the boiling point amounted to 270 °C, the log10 vapour pressure (mmHg) was -2.9, the melting point turned out to be 109 °C and the ready biodegradability result was “readily biodegradable”.
Compound `OCCC1CCNCC1` came in with a boiling point of 228 °C.
Regarding `CN(C)CC/C=C1\c2ccccc2Sc2ccc(Cl)cc21`, the melting point came out at 97.5 °C.
As to `c1ccc2c(c1)COC2`, the boiling point was 192 °C.
For `CCCCCCCCCCCCOCCCCCCCCCCCC`, the ready biodegradability entry was “readily biodegradable”.
On to `C=CCNCCC`, for which the boiling point was determined as 112 °C.
On to `C[C@]12C[C@@H](O)[C@H]3[C@@H](CC[C@]4(O)C[C@@H](O)C[C@@H](O)[C@]34CO)[C@@]1(O)CC[C@@H]2C1=CC(=O)OC1`, for which the melting point came to 236 °C.
Take `O=c1[nH]cc(Br)c(=O)[nH]1`: the melting point came to 310 °C.
As for `FC(F)(F)C(Cl)(Cl)Cl`, the boiling point was 46.1 °C, the log10 vapour pressure (mmHg) came to 2.56 and the melting point amounted to 14.2 °C.
On to `C=CCC(CC=C)(C(=O)OCC)C(=O)OCC`, for which the boiling point is 244 °C.
As for `C[C@]12CC[C@H](O)C[C@H]1CC[C@@H]1[C@@H]2CC[C@]2(C)[C@@H](C3=CC(=O)OC3)[C@@H](O)C[C@]12O`, the melting point is 234 °C.
Consider `CCOC(=O)CCN(Cc1ccccc1)SN(C)C(=O)O/N=C(/C)SC`, for which the log10 vapour pressure (mmHg) is -7.46 and the melting point was found to be 47 °C.
`Cc1ccc2cc(N(C)C)ccc2n1` returned a boiling point of 319 °C and a melting point of 101 °C.
Take `O=C(Nc1ccccc1Cl)c1ccccc1`: the melting point is 99 °C.
In the case of `CCC(C)C(C)(CC)CC` (centres undefined), the boiling point was 162 °C.
`CC(C)(C)c1cccc2ccccc12` showed a boiling point of 279 °C and a melting point of -11.3 °C.
The compound `BrCc1ccccc1Br` gave a melting point of 31 °C.
Regarding `c1ccc(Cc2ccccn2)cc1`, the boiling point came to 277 °C and the melting point is 12.5 °C.
`CCCC(C)(COC(N)=O)COC(N)=O` displayed a melting point of 105 °C.
In turn, `Nc1ccc(N)c2c1C(=O)c1ccccc1C2=O` showed a log10 vapour pressure (mmHg) of -9.7 and a melting point of 268 °C.
`O=C(O)c1cccnc1`: the melting point is 237 °C and the ready biodegradability result is “readily biodegradable”.
With `O=C1c2ccccc2C(=O)c2c(O)ccc(O)c21`, the log10 vapour pressure (mmHg) was -7.61 and the melting point was 200 °C.
In turn, `CCOC(=O)CSc1nc(C(C)(C)C)nn1C(=O)N(C)C` showed a log10 vapour pressure (mmHg) of -6.92 and a melting point of 53 °C.
For `CC(=O)O[C@]1(C(C)=O)CC[C@H]2[C@@H]3C[C@H](C(F)(F)F)C4=CC(=O)CC[C@]4(C)[C@H]3CC[C@@]21C`, the melting point stood at 206 °C.
Regarding `CCC1C=CCCC1` (centres undefined), the boiling point came out at 134 °C.
The compound `Nc1ccc(S)cc1` returned a melting point of 46 °C.
The compound `O=P1(NCCCl)OCCCN1CCCl` (centres undefined) had a melting point of 40 °C.
Take `CC[C@H]1C[N@@]2CC[C@H]1C[C@H]2[C@H](O)c1ccnc2ccc(OCCC(C)C)cc12`: the melting point stood at 152 °C.
The compound `CC1CCC(C)(C(=O)O)C1(C)C` (centres undefined) displayed a boiling point of 254 °C and a melting point of 106 °C.
`CCOC(=O)C(Br)C(C)C` (centres undefined) yielded a boiling point of 186 °C.
`CCP(c1ccccc1)c1ccccc1` yielded a boiling point of 293 °C.
With `c1ccn2cccc2c1`, the boiling point was 205 °C and the melting point was found to be 75 °C.
For the compound `O=C(O)C(O)C(=O)O`, the melting point was 157 °C.
`Cc1nonc1C` returned a boiling point of 156 °C and a melting point of -7 °C.
In turn, `c1ccc2c(c1)OCCOCCOCCOCCO2` displayed a melting point of 79 °C.
As for `O=c1ccc2cc3ccoc3cc2o1`, the melting point stood at 164 °C.
Take `Oc1ccc2[nH]ccc2c1`: the melting point was 108 °C.
For `C#CCCCCCCCCCC`, the boiling point was 215 °C and the melting point is -19 °C.
Consider `O=c1[nH]c2c(c(=O)n1C1CCCCC1)CCC2`, for which the log10 Koc (L/kg) is 2.14, the log10 vapour pressure (mmHg) is -8.82 and the melting point was 316 °C.
As for `CCSC(C)=O`, the boiling point was 116 °C.
With `CC(=O)OCC(=O)[C@@]1(O)[C@H](OC(C)=O)C[C@H]2[C@@H]3CCC4=CC(=O)C=C[C@]4(C)[C@@]3(F)[C@@H](O)C[C@@]21C`, the melting point was found to be 235 °C.
In the case of `Nc1ccc2ccccc2c1S(=O)(=O)O`, the melting point was determined as 180 °C and the ready biodegradability entry is recorded as “not readily biodegradable”.
With `CC(C)(C)C(=O)Cl`, the boiling point stood at 107 °C.
For the compound `Nc1ccc(Cl)nc1Cl`, the melting point worked out at 119 °C.
In turn, `CC(C)C(C)C(C)C(C)C` (centres undefined) gave a boiling point of 156 °C.
Compound `Cc1ccc([N+](=O)[O-])c(Cl)c1` showed a melting point of 24 °C.
Take `CC(=O)OCCl`: the boiling point was 116 °C.
For `CC(C)c1ncc([N+](=O)[O-])n1C`, the melting point came out at 60 °C.
Turning to `CCOC(=O)c1c(C)cc(O)cc1O`, the melting point turned out to be 132 °C.
Consider `c1cnc(N2CCN(Cc3ccc4c(c3)OCO4)CC2)nc1`, for which the melting point stood at 98 °C.
For the compound `OCC(CO)(CCl)CCl`, the melting point is 83 °C.
With `OCC1CCCO1` (centres undefined), the boiling point was 178 °C, the log10 vapour pressure (mmHg) is -0.0964 and the ready biodegradability entry was “readily biodegradable”.
As to `CC(=O)c1ccccc1O`, the boiling point stood at 218 °C and the melting point came to 5 °C.
Compound `CCOc1ccc(C(=O)O)cc1` returned a melting point of 198 °C.
On to `c1ccc2c(c1)Cc1cc3ccccc3cc1-2`, for which the log10 vapour pressure (mmHg) is -7.26 and the melting point was determined as 212 °C.
In turn, `CCOC(=O)C1(C(=O)OCC)CCCC1` registered a boiling point of 210 °C.
The compound `CCCCC(C(=O)O)C(=O)N(Nc1ccccc1)c1ccccc1` (centres undefined) gave a melting point of 116 °C.
For `CCCc1ccccc1O`, the boiling point came to 220 °C, the log10 vapour pressure (mmHg) was -1.05 and the melting point was 7 °C.
As to `CCOP(=S)(OCC)OC(Cl)C(Cl)(Cl)Cl` (centres undefined), the log10 Koc (L/kg) turned out to be 3.6 and the log10 vapour pressure (mmHg) is -3.1.
`O=C(Cl)C(F)(F)C(F)(F)C(F)(F)C(F)(F)C(F)(F)C(F)(F)C(F)(F)F` came in with a boiling point of 131 °C.
On to `CC(=O)N1CCOCC1`, for which the melting point stood at 14.5 °C.
For `C=C(C)[C@@H]1CC[C@@H](C)C[C@@H]1O`, the melting point worked out at 78 °C.
As to `CCNC(C)C`, the boiling point is 69.6 °C.
In the case of `Cc1ncccn1`, the boiling point is 138 °C and the melting point is -4 °C.
Turning to `Oc1ccc(Cl)cc1Sc1cc(Cl)ccc1O`, the melting point turned out to be 174 °C.
In the case of `COc1cc(C(Cl)(Cl)Cl)cc(Cl)n1`, the log10 Koc (L/kg) was determined as 3.48.
On to `CS(=O)(=O)c1ccc(C(=O)C2C(=O)CCCC2=O)c(Cl)c1`, for which the log10 vapour pressure (mmHg) was -7.43 and the melting point is 139 °C.
Consider `CCCCCC(C)=O`, for which the boiling point was 151 °C, the log10 Henry constant (atm·m³/mol) was -3.77, the log10 Koa came to 4.15 and the log10 vapour pressure (mmHg) stood at 0.586. This compound returned a melting point of -35 °C.
With `C#CCOC`, the boiling point worked out at 63 °C.
`CC(=O)OCOC(=O)[C@@H]1N2C(=O)[C@@H](NC(=O)Cc3ccccc3)[C@H]2SC1(C)C` returned a melting point of 107 °C.

Still in this series, the particulars now being: fish.
In turn, `CC(C)C1=CC2=C(CC1)[C@@]1(C)CCC[C@@](C)(C(=O)O)[C@@H]1CC2` showed a log10 BCF of 1.4.
Turning to `Nc1ccc(S(=O)(=O)[O][Na])c2ccccc12`, the log10 BCF is 0.78.
The compound `Nc1ccc2ccccc2c1S(=O)(=O)O` gave a log10 BCF of 0.78.
As to `c1ccc2c(c1)Cc1cc3ccccc3cc1-2`, the log10 biotransformation half-life (days) was -0.39.
